Entries after “also recorded” stand apart in the source; their conditions may differ.
What was measured:
Raji tumor xenografts = experiment: Raji xenograft in NSG mice treated with inhibitor-preconditioned rituximab CAR-T cells; format: in vivo; conditions: NSG mice, Raji i.v., preconditioned rituximab CAR-T cells, bioluminescence, vs vehicle control
Description: FIG. 2A-C. […] (A) Tumor signal (in photons/sec/cm^2/sr) in individual animals as quantified by bioluminescence imaging. […] Statistical significance was determined by Mann-Whitney U test with Holm-Sidak correction for multiple comparisons. * p<0.05, n.s. not statistically significant. (B) Kaplan-Meier survival curve (top) and table of median survival period in days (bottom). (C) Frequency of human CD45+EGFRt+ cell in peripheral blood collected from mice on day 8 after first dose of T-cell infusion. Statistical significance was determined by two-tailed Student's t test with Sidak correction for multiple comparisons. * p<0.05, ** p<0.01.
In vivo studies. Six- to eight-week-old NOD/SCID/IL-2Rγ^null (NSG) mice were obtained from UCLA Department of Radiation and Oncology. The protocol was approved by UCLA Institutional Animal Care and Used Committee. […] Details of the dose and timing of tumor injection, T-cell injection, and tumor re-challenge are indicated in the text and figures. Tumor progression/regression was monitored with an IVIS Illumina III LT Imaging System (PerkinElmer). Blood samples were harvested via retro-orbital bleeding 3 days post T-cell injection and every 10-13 days thereafter. Mice were euthanized at the humane endpoint. Bone marrow, spleen and liver were collected after euthanasia. Tissues were ground and passed through a 100-μm filter followed by red-blood-cell lysis prior to flow-cytometry analysis.

Leu16 CAR-T cells = experiment: Antigen-independent activation and exhaustion marker expression by flow cytometry, Leu16 CAR-T cells; format: cell-based, human; conditions: equivalent concentrations as for rituximab CAR-T cells
From the text: (§1) FIG. 3A-G. Pharmacological modulation of Leu16 CAR-T cells modestly dampens tonic signaling while enhancing anti-tumor efficacy. (A) Pictorial representation of the correlation between tonic signaling-modulated rituximab CAR-T cells and in vivo anti-tumor efficacy. (B) Pictorial representation of pharmacological modulation strategy aimed to either increase or decrease Leu16 CAR tonic signaling; c-MYC (MYCi975) and SREBP (betulin) inhibition increased tonic signaling whereas mTORC1 (rapamycin) inhibition decreased tonic signaling in rituximab CAR-T cells. (C) % distribution of T-cell subtypes in CAR^+ T cells after 6 days of pharmacological modulation (left) and Tn/scm enrichment (right). […] (F) Tumor signal (in photons/sec/cm2/sr) in individual animals as quantified by bioluminescence imaging. […]
Antibody staining for flow-cytometry analysis. EGFRt expression was measured with biotinylated cetuximab (Eli Lilly; biotinylated in-house), followed by PE-conjugated streptavidin (Jackson ImmunoResearch #016-110-084). CAR expression was quantified by surface epitope staining using anti-Fc (Alexa Fluor 488, Jackson ImmunoResearch #709-546-098). […] T-cell subtype of CAR-T cells was evaluated by antibody staining for CD45RO (VioBlue®, clone REA611, Miltenyi #130-119-620) and CD62L (APC, clone DREG56, Invitrogen #17-0629-42) after 5-6 days of inhibitor culture (FIG. 1, FIG. 3). […]

Raji lymphoma = Raji lymphoma model in NSG mice treated with inhibitor-treated Leu16 CAR-T cells; format: in vivo; conditions: Raji i.v., two doses of inhibitor-treated Leu16 CAR-T cells, vs vehicle-treated
From the text: as §1, with “(right). The bars in FIG. 3C, right graph, represent data from, EGFRt, Leu16-28z (vehicle), Leu16-28z (MYCi975), Leu16-28z (Betulin), and Leu16-28z (Rapamycin), respectively, from left to right. (D) Activation and exhaustion marker expression by CAR^+ T cells in the absence of antigen stimulation after 6 days of pharmacological modulation.” for “(right).”
In vivo studies. […] Tumor progression/regression was monitored with an IVIS Illumina III LT Imaging System (PerkinElmer). […]

| Compound | tumor outgrowth / tumor progression (Raji tumor xenografts) | tonic signaling (Leu16 CAR-T cells) | in vivo functionality: tumor control and survival (Raji lymphoma) |
| --- | --- | --- | --- |
| MYCi975 | accelerated tumor progression | dampened | – |
| C=C(C)[C@@H]1CC[C@]2(CO)CC[C@]3(C)[C@H](CC[C@@H]4[C@@]5(C)CC[C@H](O)C(C)(C)[C@@H]5CC[C@]43C)[C@@H]12 [betulin, Betulin] | accelerated tumor progression | dampened; also recorded: significant decrease | prolonged tumor control and survival |

— US20250345426A1, “METHODS FOR MAKING AND USING THERAPEUTIC CELLS” (THE REGENTS OF THE UNIVERSITY OF CALIFORNIA, priority 2022, published 2025)
